{"source": "patent US5284853A", "about": "“Angiotensin II receptor blocking 2,3,6 substituted quinazolinones” (American Cyanamid Company, priority 1993, dated 1994)", "key": {"[1]": {"target": "T1, Angiotensin II Receptor (Bos taurus, UniProt P25104)", "T1 construct": "The brownish tissue forming the adrenal cortex is scraped off and finely minced with scissors before homogenization; tissue local slaughter house (Maxwell-Cohen); host or cells: beef adrenal cortex, microsomal membranes (100,000×g pellet)", "T1 sequence (P25104 1-359)": "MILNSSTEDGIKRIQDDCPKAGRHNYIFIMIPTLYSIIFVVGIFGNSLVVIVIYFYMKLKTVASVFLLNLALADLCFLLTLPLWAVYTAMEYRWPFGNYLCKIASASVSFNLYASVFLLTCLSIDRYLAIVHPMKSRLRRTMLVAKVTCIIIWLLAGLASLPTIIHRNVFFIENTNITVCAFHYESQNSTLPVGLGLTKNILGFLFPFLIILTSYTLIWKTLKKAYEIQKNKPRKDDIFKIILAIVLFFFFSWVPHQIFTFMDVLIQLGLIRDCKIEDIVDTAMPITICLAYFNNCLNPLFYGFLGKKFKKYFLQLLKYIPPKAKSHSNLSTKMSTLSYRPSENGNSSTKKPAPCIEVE", "experiment": "Receptor binding assay: competition of [^125 I](Sar^1,Ile^8)AngII binding to beef adrenal cortex microsomal membranes", "settings": "60 min, room temperature, pH 7.4", "description": "Beef adrenals are obtained from a local slaughter house (Maxwell-Cohen). [^125 […]. 2200 Ci/mmole, is purchased from Dupont (KEN@, Boston, Mass.). All unlabeled AngII analogs, Dimethylsulfoxide (DMSO), nucleotides, bovine serum albumin (BBA) are purchased from Sigma Chemical Co., St. Louis, MO U.S.A. Approximately sixteen (16) to twenty (20) beef adrenal glands are processed as follows: fresh adrenal glands received on crushed ice are cleaned of fatty tissues and the tough membranes encapsulating the glands are removed and discarded. The brownish tissue forming the adrenal cortex is scraped off and finely minced with scissors before homogenization care is taken to avoid contamination with medullary tissue during dissection. […] Unless otherwise indicated, all subsequent operations are done at […]. […] The homogenate is centrifuged first at low speed (3,000×g) for 10 min. […] This P2 pellet is discarded and the liquid phase is carefully decanted off in clean centrifuge tubes and recentrifuged at high speed (100,000×g) for 60 min. The translucent final pellet is harvested and combined in a small volume (20-50.0 ml) of […] Tris.HCl buffer, pH 7.2. A 100 ul aliquot is withdrawn and the protein content of the preparation is determined by the Lowry's method (Lowry, O. H., Rosebrough, N. P., Parr, A. L. and Randall, R. J., Protein measurement with Folin phenol reagent. J. Biol. Chem., […], 265-275, 1951). The pelleted membrane is reconstituted in 50.0 mM Tris.HCl buffer containing 0.1 mM of phenylmethylsulfonyl fluoride (PMSF) to give approximately a protein concentration of 2.5 mg per ml of tissue suspension. […] In competition studies, experimental compounds are diluted in dimethylsulfoxide (DMSO) and added in 20 ul to wells before the introduction of tissue membranes. This concentration of DMSO is found to have no negative effects on the binding of [^125 I] ([…] to the membranes. Assays are performed in triplicate. The wells are left undisturbed for 60 min. at room temperature. Following incubation, all wells are harvested at once with a Brandel® Harvester especially designed for a 96 well plate (Brandel® Biomedical Research & Development Labs. Inc., Gaithersburg, MD, U.S.A.). The filter discs are washed with 10×1.0 ml of cold 0.9% NaCl to remove unbound ligand. Presoaking the filter sheet in 0.1% polyethyleneimine in normal saline (PEI/Saline) greatly reduces the radioactivity retained by the filter blanks. This method is routinely used. The filters are removed from the filter grid and counted in a Parkard® Cobra Gamma Counter for 1 min. (Packard Instrument Co., Downers Grove, Ill, U.S.A.). The binding data are analyzed by the non-linear interactive \"LUNDON-11\" program (LUNDON SOFTWARE Inc., Cleveland, OH U.S.A.)."}, "[2]": {"test_system": "Angiotensin II (AII) vasopressor response", "experiment": "AII Challenge: antagonism of the angiotensin II vasopressor response in conscious SHR", "format": "in vivo, Spontaneously hypertensive rats (Male okamoto-Aoki SHR)", "settings": "15 mg/kg I.V.; for Average Change / Inhibition: n = 2; for Change / Control Before AII / Response After AII: per rat", "description": "[…] Conscious Male okamoto-Aoki SHR, 16-20 weeks old, weighing approximately 330 g are purchased from Charles River Labs (Wilmington, MA). Conscious rats are restrained in a supine position with elastic tape. The area at the base of the tail is locally anesthetized by subcutaneous infiltration with 2% procaine. […] The cannula is secured, heparinized (1,000 I.U./ml), sealed and the wound is closed. The animals are placed in plastic restraining cages in an upright position. The cannula is attached to a Statham P23Db pressure transducer, and pulsatile blood pressure is recorded to 10-15 minutes with a Gould Brush recorder. (Chan et al., (Drug Development Res., 18:75-94, 1989). […] Co., St. […] […] […] […] […] A compound is considered active if at 30 mg/kg i.v. it antagonized at least 50% of the response."}, "[3]": {"settings": "AII 0.05 mcg/kg IV, 30 min post dose"}, "[4]": {"settings": "AII 0.05 mcg/kg IV, 60 min post dose"}, "[5]": {"settings": "AII 0.05 mcg/kg IV, 90 min post dose"}, "[6]": {"settings": "AII 0.05 mcg/kg IV, 120 min post dose"}, "[7]": {"settings": "AII 0.05 mcg/kg IV, 180 min post dose"}, "[8]": {"settings": "AII 0.1 mcg/kg IV, 30 min post dose"}, "[9]": {"settings": "AII 0.1 mcg/kg IV, 60 min post dose"}, "[10]": {"settings": "AII 0.1 mcg/kg IV, 90 min post dose"}, "[11]": {"settings": "AII 0.1 mcg/kg IV, 120 min post dose"}, "[12]": {"settings": "AII 0.1 mcg/kg IV, 180 min post dose"}}, "note": "Where “and” joins values, the source holds several entries; their conditions need not be identical. Identical values can stand only once."}
{"molecule": "CCCCc1nc2ccc(C3CC(C(=O)O)=NO3)cc2c(=O)n1Cc1ccc(-c2ccccc2-c2nnn[nH]2)cc1", "note": "(stereo not drawn) [Example 28, 5-[2-butyl-3,4-dihydro-4-oxo-3-[[2'-(lH-tetrazol-5-yl)[1,1'-biphenyl]-4-yl]-methyl]-6-quinazolinyl]-4,5-dihydro-3-isoxazolecarboxylic acid]", "values": [{"measurement": "IC50", "setting": "[1]", "result": 600, "unit": "nM"}, {"measurement": "Average Change", "setting": "[2]; [3]", "result": 10, "unit": "mmhg"}, {"measurement": "Inhibition", "setting": "[2]; [3]", "result": 75, "unit": "%"}, {"measurement": "Change", "setting": "[2]; [3]", "result": 10, "unit": "mmhg"}, {"measurement": "Control Before AII", "setting": "[2]; [3]", "result": "185 mmhg and 167 mmhg"}, {"measurement": "Response After AII", "setting": "[2]; [3]", "result": "195 mmhg and 177 mmhg"}, {"measurement": "Average Change", "setting": "[2]; [4]", "result": 2.5, "unit": "mmhg"}, {"measurement": "Inhibition", "setting": "[2]; [4]", "result": 94, "unit": "%"}, {"measurement": "Change", "setting": "[2]; [4]", "result": "5 mmhg and 0 mmhg"}, {"measurement": "Control Before AII", "setting": "[2]; [4]", "result": "170 mmhg and 165 mmhg"}, {"measurement": "Response After AII", "setting": "[2]; [4]", "result": "175 mmhg and 165 mmhg"}, {"measurement": "Average Change", "setting": "[2]; [5]", "result": 10, "unit": "mmhg"}, {"measurement": "Inhibition", "setting": "[2]; [5]", "result": 75, "unit": "%"}, {"measurement": "Change", "setting": "[2]; [5]", "result": 10, "unit": "mmhg"}, {"measurement": "Control Before AII", "setting": "[2]; [5]", "result": 185, "unit": "mmhg"}, {"measurement": "Response After AII", "setting": "[2]; [5]", "result": 195, "unit": "mmhg"}, {"measurement": "Average Change", "setting": "[2]; [6]", "result": 16, "unit": "mmhg"}, {"measurement": "Inhibition", "setting": "[2]; [6]", "result": 60, "unit": "%"}, {"measurement": "Change", "setting": "[2]; [6]", "result": "22 mmhg and 10 mmhg"}, {"measurement": "Control Before AII", "setting": "[2]; [6]", "result": "163 mmhg and 165 mmhg"}, {"measurement": "Response After AII", "setting": "[2]; [6]", "result": "185 mmhg and 175 mmhg"}, {"measurement": "Average Change", "setting": "[2]; [7]", "result": 15.5, "unit": "mmhg"}, {"measurement": "Inhibition", "setting": "[2]; [7]", "result": 61, "unit": "%"}, {"measurement": "Change", "setting": "[2]; [7]", "result": "16 mmhg and 15 mmhg"}, {"measurement": "Control Before AII", "setting": "[2]; [7]", "result": 170, "unit": "mmhg"}, {"measurement": "Response After AII", "setting": "[2]; [7]", "result": "186 mmhg and 185 mmhg"}, {"measurement": "Average Change", "setting": "[2]; [8]", "result": 4.5, "unit": "mmhg"}, {"measurement": "Inhibition", "setting": "[2]; [8]", "result": 91, "unit": "%"}, {"measurement": "Change", "setting": "[2]; [8]", "result": "9 mmhg and 0 mmhg"}, {"measurement": "Control Before AII", "setting": "[2]; [8]", "result": "190 mmhg and 165 mmhg"}, {"measurement": "Response After AII", "setting": "[2]; [8]", "result": "199 mmhg and 165 mmhg"}, {"measurement": "Average Change", "setting": "[2]; [9]", "result": 14, "unit": "mmhg"}, {"measurement": "Inhibition", "setting": "[2]; [9]", "result": 73, "unit": "%"}, {"measurement": "Change", "setting": "[2]; [9]", "result": "15 mmhg and 13 mmhg"}, {"measurement": "Control Before AII", "setting": "[2]; [9]", "result": "175 mmhg and 157 mmhg"}, {"measurement": "Response After AII", "setting": "[2]; [9]", "result": "190 mmhg and 170 mmhg"}, {"measurement": "Average Change", "setting": "[2]; [10]", "result": 10, "unit": "mmhg"}, {"measurement": "Inhibition", "setting": "[2]; [10]", "result": 81, "unit": "%"}, {"measurement": "Change", "setting": "[2]; [10]", "result": 10, "unit": "mmhg"}, {"measurement": "Control Before AII", "setting": "[2]; [10]", "result": "185 mmhg and 175 mmhg"}, {"measurement": "Response After AII", "setting": "[2]; [10]", "result": "195 mmhg and 185 mmhg"}, {"measurement": "Average Change", "setting": "[2]; [11]", "result": 20, "unit": "mmhg"}, {"measurement": "Inhibition", "setting": "[2]; [11]", "result": 62, "unit": "%"}, {"measurement": "Change", "setting": "[2]; [11]", "result": 20, "unit": "mmhg"}, {"measurement": "Control Before AII", "setting": "[2]; [11]", "result": "180 mmhg and 165 mmhg"}, {"measurement": "Response After AII", "setting": "[2]; [11]", "result": "200 mmhg and 185 mmhg"}, {"measurement": "Average Change", "setting": "[2]; [12]", "result": 24.5, "unit": "mmhg"}, {"measurement": "Inhibition", "setting": "[2]; [12]", "result": 53, "unit": "%"}, {"measurement": "Change", "setting": "[2]; [12]", "result": "24 mmhg and 25 mmhg"}, {"measurement": "Control Before AII", "setting": "[2]; [12]", "result": "175 mmhg and 160 mmhg"}, {"measurement": "Response After AII", "setting": "[2]; [12]", "result": "199 mmhg and 185 mmhg"}]}
